Source: patent US20240391959A1, “BICYCLIC PEPTIDE LIGANDS […] FOR TRANSFERRIN RECEPTOR 1 (TfR1)” (BicycleTx Limited, priority 2020, published 2024)
Where two headings read alike, the source gives them in different places. Starred links: 1 amine or outer side, 2 acyl side, 3 side chain; linkers in the order of their positions; H or OH if unused. Positions of bridges follow the written chain, without caps; N, C: chain ends. Residues, ends and D or L forms follow the SMILES beside them. TATA = O=C(CC[*:1])N1CN(C(=O)CC[*:2])CN(C(=O)CC[*:3])C1; TATB = O=C(C[*:1])N1CN(C(=O)C[*:2])CN(C(=O)C[*:3])C1

What was measured:
cynomolgus TfR1 [1] = format: binding
cynomolgus TfR1 [2] = format: binding; remark: listed apart in the source
human TfR1 [3] = target: T1, human TfR1 (Homo sapiens, UniProt P02786); assay: biochemical; format: binding; parameters: His6-tagged TfR1 (a.a. 89-760) (ACRO Biosystems, CD1-H5243 and TFR-C524a); His6; purchased R&D Systems or Acro Biosystems 2474-TR or CD1-H5243
Target sequence in this assay (P02786 89-760): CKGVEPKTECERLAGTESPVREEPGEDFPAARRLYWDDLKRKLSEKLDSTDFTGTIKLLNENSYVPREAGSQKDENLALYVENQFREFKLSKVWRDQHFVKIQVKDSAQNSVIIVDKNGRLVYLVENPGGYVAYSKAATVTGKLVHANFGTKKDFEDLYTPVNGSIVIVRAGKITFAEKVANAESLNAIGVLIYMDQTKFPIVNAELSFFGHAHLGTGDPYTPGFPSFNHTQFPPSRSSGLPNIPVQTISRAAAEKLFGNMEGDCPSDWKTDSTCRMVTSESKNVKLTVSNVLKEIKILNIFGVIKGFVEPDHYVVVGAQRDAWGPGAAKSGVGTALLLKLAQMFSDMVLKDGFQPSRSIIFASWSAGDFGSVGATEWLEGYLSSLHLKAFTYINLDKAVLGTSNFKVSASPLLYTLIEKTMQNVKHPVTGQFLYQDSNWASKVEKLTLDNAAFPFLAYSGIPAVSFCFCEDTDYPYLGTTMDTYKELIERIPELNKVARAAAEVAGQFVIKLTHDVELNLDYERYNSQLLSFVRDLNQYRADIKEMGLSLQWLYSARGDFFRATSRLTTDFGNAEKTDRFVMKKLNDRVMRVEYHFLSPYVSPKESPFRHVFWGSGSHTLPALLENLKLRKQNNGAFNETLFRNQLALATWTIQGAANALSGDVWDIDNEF

human TfR1 [4] = target: T1, human TfR1; assay: biochemical; format: binding; parameters: His6-tagged TfR1 (a.a. 89-760) (ACRO Biosystems, CD1-H5243 and TFR-C524a); His6; purchased R&D Systems or Acro Biosystems 2474-TR or CD1-H5243; remark: listed apart in the source
Target sequence in this assay (P02786 89-760): as above

human TfR1 [5] = target: T1, human TfR1; assay: TfR1 inhibition assay (Alpha assay, transferrin inhibition); details: inhibition of fluorescently labelled human transferrin binding; read-out: Geomean IC50 (μM) Human TfR1
Procedure: TfR1 inhibitory activity of peptides of the invention (IC50) was determined using Alpha assay, in accordance with the following method. Proteins, peptides and Alpha reagents were prepared to 5× concentration and 5 μl of each reagent added to 25 μl total volume in white 384-well Optiplate to make 1× final concentration. Fluorescently labelled human transferrin (Invitrogen, T2871) was diluted to 2.5 nM in 25 mM HEPES with 100 mM NaCl, 4 mM CaCl2, 0.5% BSA and 0.05% P20, pH 7.4. Human or cynomolgus TfR1 protein was diluted to 50 nM and unlabelled human transferrin (R&D Systems, 2914-HT) was diluted to 500 nM in the same assay buffer. Non-labelled peptides from DMSO stock were diluted 20-fold in the same assay buffer, followed by 1 in 3 serial dilution in assay buffer containing 5% DMSO to give 11-different concentrations. 5 μl fluorescently labelled transferrin, 5 μl human or cynomolgus TfR1, 5 μl non-labelled peptide or unlabelled human transferrin (R&D Systems, 2914-HT) were added to white 384-well Optiplate and incubated for 30 min. Anti-FITC Acceptor (PerkinElmer, AL127) was diluted 50-fold in assay buffer, 5 μl added to assay plate and incubated for 30 min. […] Luminescence measurements were conducted on a BMG PHERAstar FS or FSX equipped with an AlphaScreen 520-620 module at 25° C. following excitation at 680 nm. […]
Target sequence in this assay (P02786 whole entry): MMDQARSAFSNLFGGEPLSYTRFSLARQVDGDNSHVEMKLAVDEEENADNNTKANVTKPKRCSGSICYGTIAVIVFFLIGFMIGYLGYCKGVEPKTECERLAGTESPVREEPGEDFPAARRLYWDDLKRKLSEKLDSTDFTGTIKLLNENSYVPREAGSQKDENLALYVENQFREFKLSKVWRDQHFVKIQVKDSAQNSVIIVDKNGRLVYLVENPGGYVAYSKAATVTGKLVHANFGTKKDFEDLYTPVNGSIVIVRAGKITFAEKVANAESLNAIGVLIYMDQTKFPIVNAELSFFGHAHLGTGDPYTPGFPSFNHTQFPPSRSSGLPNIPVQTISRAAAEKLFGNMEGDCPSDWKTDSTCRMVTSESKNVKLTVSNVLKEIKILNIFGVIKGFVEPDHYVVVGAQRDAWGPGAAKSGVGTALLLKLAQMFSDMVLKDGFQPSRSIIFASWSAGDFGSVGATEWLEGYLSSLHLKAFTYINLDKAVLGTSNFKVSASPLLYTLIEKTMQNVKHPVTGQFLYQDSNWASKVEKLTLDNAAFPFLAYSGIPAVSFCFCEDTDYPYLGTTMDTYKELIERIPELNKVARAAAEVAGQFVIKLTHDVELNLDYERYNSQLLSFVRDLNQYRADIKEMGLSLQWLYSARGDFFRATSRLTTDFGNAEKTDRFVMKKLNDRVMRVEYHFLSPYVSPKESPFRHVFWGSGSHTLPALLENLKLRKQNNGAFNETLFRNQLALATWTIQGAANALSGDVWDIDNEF

Compound	Kd (cynomolgus TfR1 [1]) [nM]	Ki (cynomolgus TfR1 [2]) [nM]	Kd (human TfR1 [3]; Human TfR1 Kd (nM)) [nM]	Ki (human TfR1 [4]; Human TfR1 Ki (nM)) [nM]	IC50 (human TfR1 [5]) [µM]	Ki (human TfR1 [4]; Geomean Ki (μM)) [nM]	Kd (human TfR1 [3]; read-out: Human TfR1 Kd) [nM]
CC[C@H](C)[C@@H]1NC(=O)[C@@H]2CSCC(=O)N3CN(CN(C3)C(=O)CSC[C@@H](C(=O)N[C@@H](C)C(N)=O)NC(=O)[C@H](Cc3ccc(O)cc3)NC(=O)[C@H](CO)NC1=O)C(=O)CSC[C@H](NC(=O)[C@H](C)N)C(=O)N[C@@H](CO)C(=O)N1CCC[C@H]1C(=O)N[C@@H](CC(=O)O)C(=O)N[C@@H](C)C(=O)N[C@@H](Cc1c[nH]cn1)C(=O)N[C@@H](CC(C)C)C(=O)NCC(=O)N2 [BCY15468, A-(SEQ ID NO: 9)-A]	4020	1230	29	103			
CC[C@H](C)[C@@H]1NC(=O)[C@H](Cc2ccccc2)NC(=O)[C@H](C)NC(=O)[C@H](CC(C)C)NC(=O)CNC(=O)[C@@H]2CSCCC(=O)N3CN(CN(C3)C(=O)CCSC[C@@H](C(=O)N[C@@H](C)C(N)=O)NC(=O)[C@H](CCC(=O)O)NC1=O)C(=O)CCSC[C@H](NC(=O)[C@H](C)N)C(=O)N[C@@H](CCCNC(=N)N)C(=O)N[C@@H](CCC(=O)O)C(=O)N[C@@H](Cc1ccccc1)C(=O)N[C@@H](Cc1ccccc1)C(=O)N[C@@H](CC(=O)O)C(=O)N[C@@H]([C@@H](C)O)C(=O)N2 [BCY12452, A-(SEQ ID NO: 2)-A] (H-ACREFFDTCGLAFIECA-NH2; linker 2-9-16 via TATA; N-terminus and C-terminus assumed)					1.21		
CC[C@H](C)[C@@H]1NC(=O)[C@@H]2CSCC(=O)N3CN(CN(C3)C(=O)CSC[C@@H](C(=O)N3CCC[C@H]3C(=O)N[C@@H](Cc3c[nH]cn3)C(=O)N3CCC[C@H]3C(N)=O)NC(=O)[C@H](Cc3ccc(O)cc3)NC(=O)[C@H](CO)NC1=O)C(=O)CSC[C@H](NC(=O)[C@H](C)N)C(=O)N[C@@H](CO)C(=O)N1CCC[C@H]1C(=O)N[C@@H](CC(=O)O)C(=O)N[C@@H](C)C(=O)N[C@@H](Cc1c[nH]cn1)C(=O)N[C@@H](CC(C)C)C(=O)NCC(=O)N2 [BCY17115, A-(SEQ ID NO: 9)-PHP] (H-ACSPDAHLGCISYCPHP-NH2; linker 2-10-14 via TATB; N-terminus and C-terminus assumed)	1240		60	30		30	
CC[C@H](C)[C@@H]1NC(=O)[C@@H]2CSCC(=O)N3CN(CN(C3)C(=O)CSC[C@@H](C(=O)N[C@@H](CCC(=O)O)C(=O)N3CCCC[C@H]3C(=O)N[C@@H](Cc3c[nH]c4ccccc34)C(N)=O)NC(=O)[C@H](Cc3ccc(O)cc3)NC(=O)[C@H](CO)NC1=O)C(=O)CSC[C@H](NC(C)=O)C(=O)N[C@@H](CO)C(=O)N1CCC[C@H]1C(=O)N[C@@H](CC(=O)O)C(=O)N[C@@H](C)C(=O)N[C@@H](Cc1c[nH]cn1)C(=O)N[C@@H](CC(C)C)C(=O)NCC(=O)N2 [BCY18039, Ac-(SEQ ID NO: 9)-E[Pip]W]	819		8.6	8		8	
CC[C@H](C)[C@@H]1NC(=O)[C@@H]2CSCC(=O)N3CN(CN(C3)C(=O)CSC[C@@H](C(=O)N[C@@H](C)C(N)=O)NC(=O)[C@H](Cc3ccc(O)cc3)NC(=O)[C@H](CO)NC1=O)C(=O)CSC[C@H](NC(=O)[C@H](C)N)C(=O)N[C@@H](CO)C(=O)N1C[C@H](O)C[C@H]1C(=O)N[C@@H](CC(=O)O)C(=O)N[C@@H](C)C(=O)N[C@@H](Cc1c[nH]cn1)C(=O)N[C@@H](CC(C)C)C(=O)NCC(=O)N2 [BCY16047, A-(SEQ ID NO: 15)-A]	4830			42		133	49
CC[C@H](C)[C@@H]1NC(=O)[C@@H]2CSCC(=O)N3CN(CN(C3)C(=O)CSC[C@@H](C(=O)N[C@@H](CCC(=O)O)C(=O)N[C@@H](Cc3c[nH]cn3)C(=O)N[C@@H](CCC(N)=O)C(=O)N[C@@H](CCC(=O)O)C(N)=O)NC(=O)[C@H](Cc3ccc(O)cc3)NC(=O)[C@H](CO)NC1=O)C(=O)CSC[C@H](NC(=O)[C@H](C)N)C(=O)N[C@@H](CO)C(=O)N1CCC[C@H]1C(=O)N[C@@H](CC(=O)O)C(=O)N[C@@H](C)C(=O)N[C@@H](Cc1c[nH]cn1)C(=O)N[C@@H](CC(C)C)C(=O)NCC(=O)N2 [BCY17119, A-(SEQ ID NO: 9)-EHQE] (H-ACSPDAHLGCISYCEHQE-NH2; linker 2-10-14 via TATB)	5650		212			160	
CC[C@H](C)[C@@H]1NC(=O)[C@@H]2CSCC(=O)N3CN(CN(C3)C(=O)CSC[C@H](NC(=O)[C@H](Cc3ccccc3)NC(=O)[C@H](CO)NC(=O)[C@@H](N)CCC(=O)O)C(=O)N[C@@H](CO)C(=O)N3CCC[C@H]3C(=O)N[C@@H](CC(=O)O)C(=O)N[C@@H](C)C(=O)N[C@@H](Cc3c[nH]cn3)C(=O)N[C@@H](CC(C)C)C(=O)NCC(=O)N2)C(=O)CSC[C@@H](C(=O)N[C@@H](C)C(N)=O)NC(=O)[C@H](Cc2ccc(O)cc2)NC(=O)[C@H](CO)NC1=O [BCY17113, ESF-(SEQ ID NO: 9)-A] (H-ESFCSPDAHLGCISYCA-NH2; linker 4-12-16 via TATB)	1660		308			103	
CC[C@H](C)[C@@H]1NC(=O)[C@@H]2CSCC(=O)N3CN(CN(C3)C(=O)CSC[C@@H](C(=O)N[C@@H](C)C(N)=O)NC(=O)[C@H](Cc3ccncc3)NC(=O)[C@H](CO)NC1=O)C(=O)CSC[C@H](NC(=O)[C@H](C)N)C(=O)N[C@@H](CO)C(=O)N1CCC[C@H]1C(=O)N[C@@H](CC(=O)O)C(=O)N[C@@H](C)C(=O)N[C@@H](Cc1c[nH]cn1)C(=O)N[C@@H](CC(C)C)C(=O)NCC(=O)N2 [BCY16032, A-(SEQ ID NO: 48)-A]	30000		305			654	
CC[C@H](C)[C@@H]1NC(=O)[C@@H]2CSCC(=O)N3CN(CN(C3)C(=O)CSC[C@H](NC(=O)[C@H](CCSC)NC(=O)[C@H](Cc3c[nH]c4ccccc34)NC(=O)[C@@H](N)Cc3c[nH]cn3)C(=O)N[C@@H](CO)C(=O)N3CCC[C@H]3C(=O)N[C@@H](CC(=O)O)C(=O)N[C@@H](C)C(=O)N[C@@H](Cc3c[nH]cn3)C(=O)N[C@@H](CC(C)C)C(=O)NCC(=O)N2)C(=O)CSC[C@@H](C(=O)N[C@@H](C)C(N)=O)NC(=O)[C@H](Cc2ccc(O)cc2)NC(=O)[C@H](CO)NC1=O [BCY17110, HWM-(SEQ ID NO: 9)-A] (H-HWMCSPDAHLGCISYCA-NH2; linker 4-12-16 via TATB)	232		15			22	
